Source: article PMC11932207, “Regulating AMPA Receptors with Isoxazole-4-Carboxamide Derivatives: An Electrophysiological Study” (Journal of Xenobiotics, 2025)
Where two headings read alike, the source gives them in different places.

Experiments:
[1] = target: T1, GluA2 (Rattus norvegicus, UniProt P19491); assay: Whole-cell patch clamp recordings of homomeric GluA2 AMPA receptor currents and kinetics in transfected HEK293t cells; type: cell-based; details: for Amplitude (peak whole-cell current in presence of compound): 16 µM compound co-applied with agonist, HEK293t, −60 mV, pH 7.4, 22 °C; for Amplitude (peak whole-cell current in presence of compound) / A/AI (amplitude ratio, glutamate alone / with compound) / t deact (weighted deactivation time constant) / t des (weighted desensitization time constant) / Amplitude, applying glutamate alone after compound: mean ± SD; for Amplitude (peak whole-cell current in presence of compound) / A/AI (amplitude ratio, glutamate alone / with compound) / Amplitude, applying glutamate alone after compound: n = 10; for A/AI (amplitude ratio, glutamate alone / with compound): 16 µM compound; for t deact (weighted deactivation time constant): 10 mM glutamate for 1 ms; for t deact (weighted deactivation time constant) / t des (weighted desensitization time constant): with compound; for t des (weighted desensitization time constant): 10 mM glutamate for 500 ms; for Amplitude, applying glutamate alone after compound: glutamate alone after the compound; for Effect on deactivation kinetics (τdeac), in words / Effect on desensitization kinetics (τdes), in words: versus glutamate alone, one-way ANOVA
T1 construct: expressed in transfected cells; host or cells: HEK293T (HEK293) cells, transient co-transfection with a separate EGFP vector
Excerpt: (§1) The AMPA receptor subunits utilized in this study were of the flip isoform. The flip variant of the GluA2 subunit was originally provided by S. F. Heinemann (Salk Institute, La Jolla, CA, USA) in a pBlueScript plasmid. This plasmid was subsequently sub-cloned into a pRK vector to enable expression in HEK293 cells, which were sourced from Sigma, Germany. Additionally, the unedited version of GluA2 (R607Qjj, flip isoform) and enhanced green fluorescent protein (EGFP), both contained in pRK5 vectors, were generously supplied by P. H. Seeburg (Max Planck Institute for Medical Research, Heidelberg, Germany). Chemical-mediated ways induced transfection. GluA2 homomers were expressed into HEK293 cells by the co-transfection of 1 μg GluA2 plasmid with an equal amount of GFP expression vectors (1:1 ratio) into the cells. In addition, co-transfection was conducted for heteromeric GluA2/3 subunits at a ratio of 1:1.2 for optimum expression. For post-transfection experiments, cells were plated in 10% fetal calf serum and antibiotics in DMEM in Petri plates. These cultures were maintained under carefully controlled conditions—37 °C and 5% CO2 within a humidified incubator. The selection of cells for recordings was based on fluorescence intensity. Highly GFP-positive cells were identified and isolated for further analysis, ensuring precise targeting of transfected populations.
(§2) Whole-cell patch clamp recordings were performed on HEK293t cells 36–48 h after transfection. Experiments were conducted at 22 °C, maintaining a holding potential of −60 mV, using an Integrated Patch Amplifier (IPA) from Sutter Instruments (Novato, CA, USA). Data acquisition was managed with SutterPatch Software v. 1.1.1 (Sutter Instruments), employing a sampling rate of 10 kHz and setting the low-pass filter at 2 kHz. […] The external solution contained 150 mM NaCl, 2.8 mM KCl, 0.5 mM MgCl2, 2 mM CaCl2, and 10 mM HEPES, adjusted to a pH of 7.4 using NaOH. The internal pipette solution was composed of 110 mM CsF, 30 mM CsCl, 4 mM NaCl, 0.5 mM CaCl2, 10 mM trypsin-EDTA solution B (0.25%), 0.05% EDTA, and 10 mM HEPES, with the pH adjusted to 7.2 using CsOH.
(§3) A dual-barrel glass pipette (theta tube) was employed for the rapid delivery of glutamate and other solutions. The theta tube was attached to a high-speed piezoelectric solution exchange system (Automate Scientific, Berkeley, CA, USA). To assess the efficiency of solution exchange, open-tip potentials were measured by applying solutions with different ionic compositions after the patch was expelled from the pipette. The time required for a 10–90% change in the solution was generally less than […].
(§4) Data analysis was performed with Igor Pro8.04 software (Wave Metrics, Inc., Portland, OR, USA). AMPA receptor deactivation and desensitization kinetics were measured by applying 10 mM glutamate for 1 ms and 500 ms, respectively. The currents from the AMPA receptor were fitted to a double-exponential model to quantify deactivation and desensitization time constants measured from the double-exponential fits. The weighted tau (τw) is calculated as: τw = (τf × af) + (τs × as), where τf and τs are the time constants of fast and slow exponential components and af and as represent their relative amplitudes.
(§5) Data are presented as the mean ± standard deviation (SD). The total number of HEK293 cells engaged was n = 10. The experimental groups were compared to the wild type using a one-way analysis of variance (ANOVA). Statistical significance was assessed using p values: p < 0.05 (*) indicated significance, p < 0.01 (**) indicated high significance, and p < 0.001 (***) indicated very high significance. The value “ns” indicates non-significance. Concentration–response relationships were modeled using the Hill equation with the resulting combined plots via GraphPad Prism software (version 6.01, GraphPad Software). The data presented are the means from 3–4 experimental replicates. […]

[2] = target: T2, GluA2/3 (UniProt P19491+P42263); assay: Whole-cell patch clamp recordings of heteromeric GluA2/3 AMPA receptor currents and kinetics in transfected HEK293t cells; type: cell-based; details: for Amplitude (peak whole-cell current in presence of compound): 16 µM compound co-applied with agonist, HEK293t, −60 mV, pH 7.4, 22 °C; for Amplitude (peak whole-cell current in presence of compound) / A/AI (amplitude ratio, glutamate alone / with compound) / t deact (weighted deactivation time constant) / t des (weighted desensitization time constant) / Amplitude, applying glutamate alone after compound: mean ± SD; for Amplitude (peak whole-cell current in presence of compound) / A/AI (amplitude ratio, glutamate alone / with compound) / Amplitude, applying glutamate alone after compound: n = 10; for A/AI (amplitude ratio, glutamate alone / with compound): 16 µM compound; for t deact (weighted deactivation time constant): 10 mM glutamate for 1 ms; for t deact (weighted deactivation time constant) / t des (weighted desensitization time constant): with compound; for t des (weighted desensitization time constant): 10 mM glutamate for 500 ms; for Amplitude, applying glutamate alone after compound: glutamate alone after the compound; for Effect on deactivation kinetics (τdeac), in words / Effect on desensitization kinetics (τdes), in words: versus glutamate alone, one-way ANOVA
T2 construct: expressed in transfected cells; host or cells: HEK293T (HEK293) cells, transient co-transfection
Excerpt: as §1, §2, §3, §4, §5

[3] = concentration–response fit, read-out: Log IC50 (converted)
[4] = inhibition of whole-cell peak current, concentration–response, Hill fit, read-out: IC50

T1 sequence (P19491 22-883 isoform P19491-2 limits assumed): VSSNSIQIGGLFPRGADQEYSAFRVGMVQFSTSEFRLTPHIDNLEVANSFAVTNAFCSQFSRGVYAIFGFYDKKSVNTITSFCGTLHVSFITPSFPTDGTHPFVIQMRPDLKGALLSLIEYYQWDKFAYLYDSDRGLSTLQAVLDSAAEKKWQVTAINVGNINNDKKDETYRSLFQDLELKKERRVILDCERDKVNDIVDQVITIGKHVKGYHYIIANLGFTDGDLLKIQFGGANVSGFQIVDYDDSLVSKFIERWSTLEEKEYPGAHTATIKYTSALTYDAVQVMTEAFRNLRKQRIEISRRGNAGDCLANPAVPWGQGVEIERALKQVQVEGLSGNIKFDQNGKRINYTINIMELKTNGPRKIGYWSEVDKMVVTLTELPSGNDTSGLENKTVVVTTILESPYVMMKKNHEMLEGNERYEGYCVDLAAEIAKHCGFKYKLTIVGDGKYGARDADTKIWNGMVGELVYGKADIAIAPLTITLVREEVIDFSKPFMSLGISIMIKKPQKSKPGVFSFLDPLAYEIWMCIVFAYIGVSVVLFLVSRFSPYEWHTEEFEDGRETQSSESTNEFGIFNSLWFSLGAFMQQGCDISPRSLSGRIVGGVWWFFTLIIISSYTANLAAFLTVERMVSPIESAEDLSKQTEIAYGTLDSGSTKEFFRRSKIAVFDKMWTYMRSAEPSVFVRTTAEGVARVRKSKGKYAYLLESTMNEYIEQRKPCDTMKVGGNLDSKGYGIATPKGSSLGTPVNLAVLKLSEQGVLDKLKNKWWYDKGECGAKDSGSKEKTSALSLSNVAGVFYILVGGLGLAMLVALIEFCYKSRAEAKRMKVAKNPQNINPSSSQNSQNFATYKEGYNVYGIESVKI
T2 sequence (P19491 22-883 isoform P19491-2 limits assumed): as above
T2 sequence (P42263 29-894 isoform P42263-2 limits assumed): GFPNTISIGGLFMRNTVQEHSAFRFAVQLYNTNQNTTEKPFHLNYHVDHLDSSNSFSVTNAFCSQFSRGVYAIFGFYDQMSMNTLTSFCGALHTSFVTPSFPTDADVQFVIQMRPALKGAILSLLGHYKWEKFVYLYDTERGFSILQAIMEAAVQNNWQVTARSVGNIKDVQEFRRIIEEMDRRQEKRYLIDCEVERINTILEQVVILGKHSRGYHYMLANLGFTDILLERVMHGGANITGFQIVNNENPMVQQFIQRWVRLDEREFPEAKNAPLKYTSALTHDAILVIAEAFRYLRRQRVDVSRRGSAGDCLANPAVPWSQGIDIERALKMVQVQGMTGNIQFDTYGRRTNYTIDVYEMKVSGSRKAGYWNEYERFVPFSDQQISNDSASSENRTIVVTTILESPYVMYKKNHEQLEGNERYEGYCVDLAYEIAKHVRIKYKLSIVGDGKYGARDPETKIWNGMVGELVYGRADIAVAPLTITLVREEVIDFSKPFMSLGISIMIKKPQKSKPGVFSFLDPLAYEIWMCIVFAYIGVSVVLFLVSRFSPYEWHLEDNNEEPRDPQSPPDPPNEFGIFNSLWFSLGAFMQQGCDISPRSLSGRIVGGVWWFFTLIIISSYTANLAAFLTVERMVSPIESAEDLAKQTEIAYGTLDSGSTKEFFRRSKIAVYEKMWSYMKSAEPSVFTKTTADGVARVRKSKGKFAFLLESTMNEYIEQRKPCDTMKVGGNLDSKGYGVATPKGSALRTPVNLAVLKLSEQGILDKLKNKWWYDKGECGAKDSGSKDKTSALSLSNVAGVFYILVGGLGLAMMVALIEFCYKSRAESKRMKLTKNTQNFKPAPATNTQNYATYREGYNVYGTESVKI

| SMILES | Amplitude (peak whole-cell current in presence of compound) [1] [pA] | A/AI (amplitude ratio, glutamate alone / with compound) [1] | t deact (weighted deactivation time constant) [1] [ms] | IC50 [1, 3] [µM] | Amplitude, applying glutamate alone after compound [1] [pA] | IC50 [1, 4] [µM] | Amplitude (peak whole-cell current in presence of compound) [2] [pA] | A/AI (amplitude ratio, glutamate alone / with compound) [2] | t deact (weighted deactivation time constant) [2] [ms] | IC50 [2, 3] [µM] | Amplitude, applying glutamate alone after compound [2] [pA] | IC50 [2, 4] [µM] | t des (weighted desensitization time constant) [1] [ms] | Effect on deactivation kinetics (τdeac), in words [1] | Effect on desensitization kinetics (τdes), in words [1] | t des (weighted desensitization time constant) [2] [ms] | Effect on deactivation kinetics (τdeac), in words [2] | Effect on desensitization kinetics (τdes), in words [2] |
| --- | --- | --- | --- | --- | --- | --- | --- | --- | --- | --- | --- | --- | --- | --- | --- | --- | --- | --- |
| COc1cc(NC(=O)c2c(-c3c(Cl)cccc3Cl)noc2C)cc(OC)c1 [CIC-3, 3-(2,6-dichlorophenyl)-N-(3,5-dimethoxyphenyl)-5-methylisoxazole-4-carboxamide] | 223±15 | 5.60±0.27 | 6.3 ± 0.3 | 4.79 | 1216±119 | 4.82 | 101±10 | 5.50±0.26 | 6.2 ± 0.3 | 4.9 | 542±66 | 4.92 | 0.9 ± 0.1 | statistically significant prolongation of τdeac | significantly accelerated desensitization | 0.9 ± 0.1 | statistically significant prolongation of τdeac | significantly accelerated desensitization |
| COc1cc(NC(=O)c2c(-c3c(Cl)cccc3Cl)noc2C)cc(OC)c1OC [CIC-4, 3-(2,6-dichlorophenyl)-5-methyl-N-(3,4,5-trimethoxyphenyl)isoxazole-4-carboxamide] | 250±22 | 5.0±0.23 | 5.6 ± 0.3 | 5.25 | 1220±157 | 5.26 | 110±16 | 4.97±0.23 | 5.7 ± 0.3 | 5.37 | 531±89 | 5.4 | 1.1 ± 0.1 | statistically significant prolongation of τdeac | accelerated desensitization, although to a lesser degree | 1.1 ± 0.1 | statistically significant prolongation of τdeac | accelerated desensitization, although to a lesser degree |
| COc1ccc(NC(=O)c2c(-c3c(Cl)cccc3Cl)noc2C)c(OC)c1 [CIC-5, 3-(2,6-dichlorophenyl)-N-(2,4-dimethoxyphenyl)-5-methylisoxazole-4-carboxamide] | 228±15 | 5.42±0.07 | 6.1 ± 0.3 | 5.01 | 1198±99 | 5.03 | 105±7 | 5.37±016 | 6.2 ± 0.3 | 5.13 | 548±40 | 5.14 | 1.0 ± 0.1 | statistically significant prolongation of τdeac | accelerated desensitization, although to a lesser degree | 1.0 ± 0.1 | statistically significant prolongation of τdeac | accelerated desensitization, although to a lesser degree |

Second part, led by results:

| Amplitude (peak whole-cell current in presence of compound) [1] [pA] | A/AI (amplitude ratio, glutamate alone / with compound) [1] | t deact (weighted deactivation time constant) [1] [ms] | IC50 [1, 3] [µM] | Amplitude, applying glutamate alone after compound [1] [pA] | IC50 [1, 4] [µM] | Amplitude (peak whole-cell current in presence of compound) [2] [pA] | A/AI (amplitude ratio, glutamate alone / with compound) [2] | t deact (weighted deactivation time constant) [2] [ms] | IC50 [2, 3] [µM] | Amplitude, applying glutamate alone after compound [2] [pA] | IC50 [2, 4] [µM] | SMILES | t des (weighted desensitization time constant) [1] [ms] | Effect on deactivation kinetics (τdeac), in words [1] | Effect on desensitization kinetics (τdes), in words [1] | t des (weighted desensitization time constant) [2] [ms] | Effect on deactivation kinetics (τdeac), in words [2] | Effect on desensitization kinetics (τdes), in words [2] |
| --- | --- | --- | --- | --- | --- | --- | --- | --- | --- | --- | --- | --- | --- | --- | --- | --- | --- | --- |
| 256±19 | 4.84±0.23 | 5.4 ± 0.2 | 5.75 | 1202±120 | 5.74 | 116±10 | 4.76±0.14 | 5.3 ± 0.3 | 5.75 | 534±56 | 5.76 | COc1ccc(NC(=O)c2c(-c3c(Cl)cccc3Cl)noc2C)cc1OC [CIC-6, 3-(2,6-dichlorophenyl)-N-(3,4-dimethoxyphenyl)-5-methylisoxazole-4-carboxamide] | 1.5 ± 0.1 | statistically significant prolongation of τdeac | accelerated desensitization, although to a lesser degree | 1.6 ± 0.1 | statistically significant prolongation of τdeac | accelerated desensitization, although to a lesser degree |
| 280±13 | 4.53±0.21 | 5.1 ± 0.2 | 6.03 | 1231±106 | 6.03 | 120±15 | 4.49±0.21 | 5.2 ± 0.2 | 6.17 | 524±76 | 6.14 | COc1ccccc1Oc1ccc(NC(=O)c2c(-c3c(Cl)cccc3Cl)noc2C)cc1 [CIC-7, 3-(2,6-dichlorophenyl)-N-(4-(2-methoxyphenoxy)phenyl)-5-methylisoxazole-4-carboxamide] | 1.7 ± 0.1 | statistically significant prolongation of τdeac | accelerated desensitization, although to a lesser degree | 1.8 ± 0.1 | statistically significant prolongation of τdeac | accelerated desensitization, although to a lesser degree |
| 291±22 | 4.36±0.19 | 4.8 ± 0.2 | 6.17 | 1235±151 | 6.21 | 123±20 | 4.30±0.20 | 4.9 ± 0.3 | 6.31 | 513±99 | 6.3 | Cc1onc(-c2c(Cl)cccc2Cl)c1C(=O)Nc1ccccc1 [CIC-8, 3-(2,6-dichlorophenyl)-5-methyl-N-phenylisoxazole-4-carboxamide] | 1.9 ± 0.1 | statistically significant prolongation of τdeac | accelerated desensitization, although to a lesser degree | 1.9 ± 0.1 | statistically significant prolongation of τdeac | accelerated desensitization, although to a lesser degree |
